Assay results published in ChEMBL document CHEMBL2177047, “Design, synthesis, and pharmacological evaluation of bis-2-(5-phenylacetamido-1,2,4-thiadiazol-2-yl)ethyl sulfide 3 (BPTES) analogs as glutaminase inhibitors” (J Med Chem, 2012).
Values after ≈ are worked out from the molar mass of the structure shown. Active and inactive are the calls of the source. No cut-off for these calls is given here.

Tests used:
[1] = target: T1, Glutaminase kidney isoform, mitochondrial (Homo sapiens, UniProt O94925); assay: Inhibition of human kidney glutaminase (124 to 669) using L-[3H]-glutamine as substrate after 45 mins by GLS assay
T1 sequence (O94925 whole entry): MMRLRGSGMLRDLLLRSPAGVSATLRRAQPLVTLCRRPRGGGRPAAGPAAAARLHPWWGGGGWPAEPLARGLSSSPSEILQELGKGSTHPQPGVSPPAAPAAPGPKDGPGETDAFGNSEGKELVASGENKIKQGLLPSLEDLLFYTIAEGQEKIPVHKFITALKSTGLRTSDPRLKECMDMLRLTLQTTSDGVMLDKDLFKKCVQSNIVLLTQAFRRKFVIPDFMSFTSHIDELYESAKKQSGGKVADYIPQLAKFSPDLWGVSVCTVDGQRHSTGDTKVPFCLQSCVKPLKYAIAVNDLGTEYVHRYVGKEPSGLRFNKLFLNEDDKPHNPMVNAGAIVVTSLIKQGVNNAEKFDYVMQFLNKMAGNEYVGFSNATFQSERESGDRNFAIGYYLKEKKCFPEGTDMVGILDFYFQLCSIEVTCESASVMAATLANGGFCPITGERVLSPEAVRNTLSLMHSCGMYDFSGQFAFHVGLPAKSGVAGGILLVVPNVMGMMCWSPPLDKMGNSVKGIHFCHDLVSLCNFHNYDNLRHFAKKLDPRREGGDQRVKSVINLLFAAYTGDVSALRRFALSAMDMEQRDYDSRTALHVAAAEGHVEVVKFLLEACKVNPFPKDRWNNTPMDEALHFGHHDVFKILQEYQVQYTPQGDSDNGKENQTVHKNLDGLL

[2] = test system: Liver; assay: Metabolic stability in mouse liver microsomes at 5 uM up to 1 hr by LC/MS/MS analysis; assay type: ADME, Microsome
[3] = physchem; settings: PBS buffer, pH 7.4
Description: Aqueous solubility of the compound in PBS buffer at pH 7.4 after 72 hrs by conventional shake flask method

[4] = (§1) Cytotoxicity against human P493 cells assessed as growth inhibition by trypan blue dye exclusion assay; assay type: functional, cell-based; settings: P493-6
[5] = target: T2, Glutaminase liver isoform, mitochondrial (Mus musculus) (UniProt Q571F8); assay: Inhibition of mouse liver GLS2 up to 100 uM
T2 sequence (whole entry): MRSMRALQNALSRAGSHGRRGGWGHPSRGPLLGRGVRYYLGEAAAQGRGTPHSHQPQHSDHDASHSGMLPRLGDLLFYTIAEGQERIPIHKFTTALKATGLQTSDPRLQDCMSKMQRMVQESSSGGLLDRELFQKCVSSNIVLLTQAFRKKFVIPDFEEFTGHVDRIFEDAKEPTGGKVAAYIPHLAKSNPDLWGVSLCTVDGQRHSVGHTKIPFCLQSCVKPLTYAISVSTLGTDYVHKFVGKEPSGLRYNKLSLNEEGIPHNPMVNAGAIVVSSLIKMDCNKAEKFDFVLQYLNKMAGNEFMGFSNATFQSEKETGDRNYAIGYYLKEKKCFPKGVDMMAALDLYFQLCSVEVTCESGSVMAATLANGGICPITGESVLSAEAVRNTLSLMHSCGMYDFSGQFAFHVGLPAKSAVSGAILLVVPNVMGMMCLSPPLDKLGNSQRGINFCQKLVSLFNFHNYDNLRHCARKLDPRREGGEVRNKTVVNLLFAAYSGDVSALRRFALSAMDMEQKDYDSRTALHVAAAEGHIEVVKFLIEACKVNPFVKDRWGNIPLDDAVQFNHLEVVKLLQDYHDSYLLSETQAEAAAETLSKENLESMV

[6] = test system: P493; assay: as §1; assay type: functional, cell-based
[7] = test system: P493; assay: Antitumor activity against human P493 cells xenografted in SCID mouse assessed as reduction in tumor growth at 12.5 mg/kg, ip administered every other day from day 10 measured on days 10 to 19 relative to vehicle-treated control; assay type: functional, organism-based; set-up: dose 12.5 mg/kg

SMILES | IC50 [1] | also measured
Nc1nnc(CCCc2nnc(NC(=O)Cc3ccccc3)s2)s1 | 15 µM | –
O=C(CCCCc1nnc(NC(=O)Cc2ccccc2)s1)NCCN1CCCC1 | – | Stability [2]: Stable; solubility thermodynamic at 72 h [3]: 0.683 mg/mL (≈ 1640 µM); IC50 [4]: 40 µM
O=C(CCCCc1nnc(NC(=O)Cc2ccccc2)s1)NCc1ccccc1 | > 100 µM | –
NCCNC(=O)CCCCc1nnc(NC(=O)Cc2ccccc2)s1 | > 100 µM | –
O=C(CCCCc1nnc(NC(=O)Cc2ccccc2)s1)NCCN1CCC(c2ccccc2)CC1 | 1.4 µM | –
Nc1nnc(CCCCc2csc(NC(=O)Cc3ccccc3)n2)s1 | > 100 µM | –
Nc1nnc(CCCCc2nnc(NC(=O)CC3CCCCC3)s2)s1 | 22 µM | –
O=C(CCCCc1nnc(NC(=O)Cc2ccccc2)s1)NCCN1CCC(O)CC1 | 3.8 µM | –
Nc1nnc(CCCCc2nnc(NC(=O)CCc3ccccc3)s2)s1 | > 100 µM | –
Cc1ccc(CC(=O)Nc2nnc(CCCCc3nnc(N)s3)s2)cc1 | 4.5 µM | –
Nc1nnc(CCCCc2nnc(NC(=O)Cc3ccc(F)cc3)s2)s1 | 2.6 µM | –
CC(C(=O)Nc1nnc(CCCCc2nnc(N)s2)s1)c1ccccc1 (stereo not given) | 12 µM | –
Nc1nnc(CCSCCc2nnc(NC(=O)Cc3ccccc3)s2)s1 | – | inhibition [5]: inactive; growth inhibition (GI) [6]: Dose-dependent effect; TGI [7]: Active
O=C(CCCCc1nnc(NC(=O)Cc2ccccc2)s1)NCc1ccc(C(F)(F)F)cc1 | > 100 µM | –
CN(CCN1CCCC1)C(=O)CCCCc1nnc(NC(=O)Cc2ccccc2)s1 | > 100 µM | –
CN(C)c1ccc(CNC(=O)CCCCc2nnc(NC(=O)Cc3ccccc3)s2)cc1 | 48 µM | –
CN(C(=O)CCCCc1nnc(NC(=O)Cc2ccccc2)s1)C(C)(C)C | 5.2 µM | –
CCN(CC)CCNC(=O)CCCCc1nnc(NC(=O)Cc2ccccc2)s1 | 26 µM | –
Nc1nnc(CCCCc2nnc(NC(=O)Cc3ccccc3)s2)s1 | – | Stability [2]: Stable; solubility thermodynamic at 72 h [3]: 0.0034 mg/mL (≈ 9.08 µM)
CN1CCCC1CCNC(=O)CCCCc1nnc(NC(=O)Cc2ccccc2)s1 (stereo not given) | 8.1 µM | –
CC(C)(C)NC(=O)CCCCc1nnc(NC(=O)Cc2ccccc2)s1 | 11 µM | –
Nc1nnc(CC[S+]([O-])CCc2nnc(NC(=O)Cc3ccccc3)s2)s1 (stereo not given) | 61 µM | –
Nc1nnc(CCCCc2nnc(NC(=O)c3ccccc3)s2)s1 | 7.2 µM | –
Nc1nnc(CCCCc2cnc(NC(=O)Cc3ccccc3)s2)s1 | > 100 µM | –
O=C(CCCCc1nnc(NC(=O)Cc2ccccc2)s1)NCCN1CCCCC1 | 10 µM | –
